Source: the supplement of paper PMC10132981, “Formate overflow drives toxic folate trapping in MTHFD1 inhibited cancer cells” (Nature Metabolism, 2023)
± gives the standard deviation of the averaged measurements.

Key:
Experiment in all cases: EC50 for viability (resazurin, 96 h)
HCT116 = settings: RPMI+GlutaMAX (10% FBS, 1% P/S)
SW620 MTHFD2 -/- = system: SW620 MTHFD2 -/-
SW620 = system: SW620
SW620 MTHFD2-/- = settings: RPMI+GlutaMAX (5% dFBS, 1% P/S)
SW620 WT = system: SW620 WT

Nc1nc(N)c(CC(=O)Nc2cnc(C(=O)N[C@@H](CCC(=O)O)C(=O)O)c(F)c2)c(=O)[nH]1 [TH9619]
EC50 for viability [nM]
Settings	metabolite supplement: Hypoxanthine	metabolite supplement: Hypoxanthine + Formate	metabolite supplement: Thymidine
HCT116	13.5	–	1190
SW620 MTHFD2-/-	4230	30.1	–

Settings	EC50 for viability [nM]
SW620 MTHFD2 -/-, RPMI+GlutaMAX (5% dFBS, 1% P/S), metabolite supplement: Hypoxanthine	25
SW620 MTHFD2 -/-, RPMI+GlutaMAX (5% dFBS, 1% P/S), metabolite supplement: Sodium Formate	6.43
SW620 MTHFD2 -/-, RPMI+GlutaMAX (5% dFBS, 1% P/S), metabolite supplement: Thymidine	0.821 ± 0.6
SW620 MTHFD2 -/-, RPMI+GlutaMAX (5% dFBS, 1% P/S), metabolite supplement: Thymidine + Sodium Formate	> 10000
SW620 MTHFD2 -/-, RPMI+GlutaMAX (5% dFBS, 1% P/S), metabolite supplement: Vehicle	1.03 ± 0.77
SW620 MTHFD2 -/-, RPMI+GlutaMAX (10% FBS, 1% P/S), metabolite supplement: None	2.82
SW620 MTHFD2 -/-, RPMI+GlutaMAX (10% dFBS, 1% P/S), metabolite supplement: None	993
SW620 WT, RPMI+GlutaMAX (5% dFBS, 1% P/S), metabolite supplement: Adenine	18.9
SW620 WT, RPMI+GlutaMAX (5% dFBS, 1% P/S), metabolite supplement: Adenosine	18.3
SW620 WT, RPMI+GlutaMAX (5% dFBS, 1% P/S), metabolite supplement: Guanosine	24.2
SW620 WT, RPMI+GlutaMAX (5% dFBS, 1% P/S), metabolite supplement: Hypoxanthine	19.5 ± 4.7
SW620 WT, RPMI+GlutaMAX (5% dFBS, 1% P/S), metabolite supplement: Hypoxanthine + AICAr 10 µM	19.7
SW620 WT, RPMI+GlutaMAX (5% dFBS, 1% P/S), metabolite supplement: Hypoxanthine + AICAr 30 µM	30.3
SW620 WT, RPMI+GlutaMAX (5% dFBS, 1% P/S), metabolite supplement: Hypoxanthine + AICAr 50 µM	75.9
SW620 WT, RPMI+GlutaMAX (5% dFBS, 1% P/S), metabolite supplement: Hypoxanthine + AICAr 100 µM	1670
SW620 WT, RPMI+GlutaMAX (5% dFBS, 1% P/S), metabolite supplement: Sodium Formate	944
SW620 WT, RPMI+GlutaMAX (5% dFBS, 1% P/S), metabolite supplement: Thymidine	1900 ± 1300
SW620 WT, RPMI+GlutaMAX (5% dFBS, 1% P/S), metabolite supplement: Thymidine + Sodium Formate	> 10000
SW620 WT, RPMI+GlutaMAX (5% dFBS, 1% P/S), metabolite supplement: Vehicle	861 ± 380
SW620 WT, RPMI+GlutaMAX (5% dFBS, 1% P/S, 10 uM Hypoxanthine), metabolite supplement: Thymidine 0.1 uM	18.9
SW620 WT, RPMI+GlutaMAX (5% dFBS, 1% P/S, 10 uM Hypoxanthine), metabolite supplement: Thymidine 0.5 uM	66.9
SW620 WT, RPMI+GlutaMAX (5% dFBS, 1% P/S, 10 uM Hypoxanthine), metabolite supplement: Thymidine 1uM	3910
SW620 WT, RPMI+GlutaMAX (5% dFBS, 1% P/S, 10 uM Hypoxanthine), metabolite supplement: Thymidine 5uM	> 10000
SW620 WT, RPMI+GlutaMAX (5% dFBS, 1% P/S, 10 uM Hypoxanthine), metabolite supplement: Thymidine 10 uM	> 10000
SW620 WT, RPMI+GlutaMAX (5% dFBS, 1% P/S, 10 uM Hypoxanthine), metabolite supplement: Thymidine 25 uM	> 10000
SW620 WT, RPMI+GlutaMAX (5% dFBS, 1% P/S, 10 uM Hypoxanthine), metabolite supplement: Thymidine 50 uM	> 10000
SW620 WT, RPMI+GlutaMAX (5% dFBS, 1% P/S, 50 uM Hypoxanthine), metabolite supplement: Thymidine 0.1 uM	17.4
SW620 WT, RPMI+GlutaMAX (5% dFBS, 1% P/S, 50 uM Hypoxanthine), metabolite supplement: Thymidine 0.5 uM	26.3
SW620 WT, RPMI+GlutaMAX (5% dFBS, 1% P/S, 50 uM Hypoxanthine), metabolite supplement: Thymidine 1uM	31.9
SW620 WT, RPMI+GlutaMAX (5% dFBS, 1% P/S, 50 uM Hypoxanthine), metabolite supplement: Thymidine 5uM	> 10000
SW620 WT, RPMI+GlutaMAX (5% dFBS, 1% P/S, 50 uM Hypoxanthine), metabolite supplement: Thymidine 10 uM	> 10000
SW620 WT, RPMI+GlutaMAX (5% dFBS, 1% P/S, 50 uM Hypoxanthine), metabolite supplement: Thymidine 25 uM	> 10000
SW620 WT, RPMI+GlutaMAX (5% dFBS, 1% P/S, 50 uM Hypoxanthine), metabolite supplement: Thymidine 50 uM	> 10000
SW620 WT, RPMI+GlutaMAX (10% FBS, 1% P/S), metabolite supplement: None	32.9
SW620 WT, RPMI+GlutaMAX (10% dFBS, 1% P/S), metabolite supplement: None	4.93
SW620, HPLM (5% dFBS, 1% P/S), metabolite supplement: Vehicle	11.3
SW620, RPMI+GlutaMAX (5% FBS, 1% P/S), metabolite supplement: Vehicle	24.9
SW620, RPMI+GlutaMAX (5% dFBS, 1% P/S), metabolite supplement: 0 nM Pyrazofurin	1030
SW620, RPMI+GlutaMAX (5% dFBS, 1% P/S), metabolite supplement: 25 nM Pyrazofurin	1160
SW620, RPMI+GlutaMAX (5% dFBS, 1% P/S), metabolite supplement: 50 nM Pyrazofurin	365
SW620, RPMI+GlutaMAX (5% dFBS, 1% P/S), metabolite supplement: 0.5 µM Hypoxanthine	287
SW620, RPMI+GlutaMAX (5% dFBS, 1% P/S), metabolite supplement: 1.0 µM Hypoxanthine	75.5
SW620, RPMI+GlutaMAX (5% dFBS, 1% P/S), metabolite supplement: 5.0 µM Hypoxanthine	14.1
SW620, RPMI+GlutaMAX (5% dFBS, 1% P/S), metabolite supplement: 10 µM Hypoxanthine	13.2
SW620, RPMI+GlutaMAX (5% dFBS, 1% P/S), metabolite supplement: 12,5 nM Pyrazofurin	1420
SW620, RPMI+GlutaMAX (5% dFBS, 1% P/S), metabolite supplement: 25 µM Hypoxanthine	14.6
SW620, RPMI+GlutaMAX (5% dFBS, 1% P/S), metabolite supplement: 50 µM Hypoxanthine	13.9 ± 2.2
SW620, RPMI+GlutaMAX (5% dFBS, 1% P/S), metabolite supplement: Allopurinol	312
SW620, RPMI+GlutaMAX (5% dFBS, 1% P/S), metabolite supplement: Allopurinol + Hypoxanthine	15.5
SW620, RPMI+GlutaMAX (5% dFBS, 1% P/S), metabolite supplement: Deoxyuridine	267
SW620, RPMI+GlutaMAX (5% dFBS, 1% P/S), metabolite supplement: Deoxyuridine + Hypoxanthine	9.78
SW620, RPMI+GlutaMAX (5% dFBS, 1% P/S), metabolite supplement: Febuxostat	766
SW620, RPMI+GlutaMAX (5% dFBS, 1% P/S), metabolite supplement: Febuxostat + Hypoxanthine	25.2
SW620, RPMI+GlutaMAX (5% dFBS, 1% P/S), metabolite supplement: H2O2	406
SW620, RPMI+GlutaMAX (5% dFBS, 1% P/S), metabolite supplement: H2O2 + Hypoxanthine	16.3
SW620, RPMI+GlutaMAX (5% dFBS, 1% P/S), metabolite supplement: Hypoxanthine	15.4 ± 2.1
SW620, RPMI+GlutaMAX (5% dFBS, 1% P/S), metabolite supplement: Orotic acid	309
SW620, RPMI+GlutaMAX (5% dFBS, 1% P/S), metabolite supplement: Orotic acid + Hypoxanthine	12.8
SW620, RPMI+GlutaMAX (5% dFBS, 1% P/S), metabolite supplement: Uric acid	502
SW620, RPMI+GlutaMAX (5% dFBS, 1% P/S), metabolite supplement: Vehicle	400 ± 150
SW620, RPMI+GlutaMAX (5% dFBS, 1% P/S, 50 µM Hypoxanthine), metabolite supplement: 0	13.3
SW620, RPMI+GlutaMAX (10% FBS, 1% P/S), metabolite supplement: Folic acid	4000
SW620, RPMI+GlutaMAX (10% FBS, 1% P/S), metabolite supplement: Folinic acid	> 10000
SW620, RPMI+GlutaMAX (10% FBS, 1% P/S), metabolite supplement: Hypoxanthine	13.6
SW620, RPMI+GlutaMAX (10% FBS, 1% P/S), metabolite supplement: Sodium Formate	15.3
SW620, RPMI+GlutaMAX (10% FBS, 1% P/S), metabolite supplement: Thymidine	516 ± 78
SW620, RPMI+GlutaMAX (10% FBS, 1% P/S), metabolite supplement: Thymidine + Folic acid	8880
SW620, RPMI+GlutaMAX (10% FBS, 1% P/S), metabolite supplement: Thymidine + Sodium Formate	538
SW620, RPMI+GlutaMAX (10% FBS, 1% P/S), metabolite supplement: Vehicle	22.6 ± 3.4
